From patent US11986790B2, “Method for preparing microcapsules” (LG Household & Health Care Ltd., priority 2018, dated 2024) come the findings set out here.

This data set in a line: Water solubility of acrylic monomers. The conditions noted are these: 25 °C. It counts as physicochemical. The text has this: Specific examples of such acrylic monomers may include one or more selected from the group consisting of dipropyleneglycol diacrylate, diethyleneglycol diacrylate, and tetraethyleneglycol dimethacrylate, as shown in the following Table 1.

≈ marks a conversion by molar mass, not a printed value.

By solubility is commonly meant how much of the substance goes into solution per volume. A higher solubility goes with a readily soluble substance.

Consider `C=C(C)C(=O)OCCOCCOCCOCCOC(=O)C(=C)C` [Tetraethylene glycol Dimethacrylate], for which the solubility runs as follows: (Table 1, room temperature of 25° C.) 52 to 53 mg/mL (≈ 157 to 160 mM); (stated in the example text for the monomer used) 52 mg/mL (≈ 157 mM).
